Measurements: US12708116B2, “Herbicidal compositions comprising 2,4-D” (BASF SE, priority 2023, dated 2026)

Legend:
Experiment in all cases: Post-emergence application in field trials
HORVW = conditions: growth stage 23-29, height 20-25 cm
ECHCG = assay type: in vivo, Echinochloa crus-galli
ZEAMX = conditions: growth stage 15-16
DIGSA = test system: DIGSA
SETVI = assay type: in vivo, Setaria viridis; conditions: 15 DAT; g ai/ha A-1 12.5, B-5 1066, C-10 840; growth stage 13-19; height 2-18 cm; water volume 140 l/ha
AMAPA = conditions: 14 DAT, growth stage 12-24, height 5-30 cm, water volume 140 l/ha
DATST = conditions: Example 6; 21 DAT; g ai/ha A-1 12.5, B-5 1066, C-11 400
CYPES = conditions: 21 DAT, water volume 140 l/ha
SETVE = conditions: Example 6, g ai/ha A-1 12.5, B-5 1066, C-11 400, growth stage 21-23, height 10-15 cm
[1] = Example 7, 28 DAT, g ai/ha A-1 12.5, B-4 1066, C-11 400
[2] = Example 9, 21 DAT, g ai/ha A-1 12.5, B-4 1066, C-12 252
[3] = Example 11, 21 DAT, g ai/ha A-1 12.5, B-4 1066, C-4 12.5
[4] = Example 7, 28 DAT, g ai/ha A-1 12.5, B-4 1066, C-11 400, growth stage 23-30, height 15-20 cm
[5] = Example 9, 28 DAT, g ai/ha A-1 12.5, B-4 1066, C-12 252, growth stage 23-30, height 15-20 cm
[6] = Example 7, 28 DAT, g ai/ha A-1 12.5, B-4 1066, C-11 400, height 50-60 cm
[7] = Example 9, 28 DAT, g ai/ha A-1 12.5, B-4 1066, C-12 252, height 50-60 cm
[8] = Example 11, 21 DAT, g ai/ha A-1 12.5, B-4 1066, C-4 12.5, height 50-60 cm

SMILES: CNC.O=C(O)COc1ccc(Cl)cc1Cl [B-4, 2,4-D-dimethylammonium]
- % Herbicidal activity (HORVW; Example 5, 7 DAT, g ai/ha A-1 12.5, B-4 1066): 0%
- % Herbicidal activity (HORVW; [1]): 0%
- % Herbicidal activity (HORVW; [2]): 0%
- % Herbicidal activity (HORVW; [3]): 0%
- % Herbicidal activity (ECHCG; [4]): 0%
- % Herbicidal activity (ECHCG; [5]): 0%
- % Herbicidal activity (ZEAMX; Example 5, 21 DAT, g ai/ha A-1 12.5, B-4 1066, height 50-60 cm): 0%
- % Herbicidal activity (ZEAMX; [6]): 0%
- % Herbicidal activity (ZEAMX; [7]): 0%
- % Herbicidal activity (ZEAMX; [8]): 0%

SMILES: C#CCN1C(=O)C(F)(F)Oc2cc(F)c(-n3c(=O)n(C)c(=S)n(C)c3=O)cc21 [C-4, trifludimoxazin]
- % Herbicidal activity (HORVW; Example 10, 21 DAT, g ai/ha A-1 12.5, B-5 1066, C-4 12.5): 30%
- % Herbicidal activity (HORVW; [3]): 20%
- % Herbicidal activity (ECHCG; Example 10, 21 DAT, g ai/ha A-1 12.5, B-5 1066, C-4 12.5, growth stage 23-30, height 15-20 cm): 30%
- % Herbicidal activity (ZEAMX; [8]): 30%

SMILES: O=C(O)CNCP(=O)(O)O [C-10, glyphosate-potassium]
- % Herbicidal activity (DIGSA; 15 DAT, g ai/ha A-1 12.5, B-5 1066, C-10 840, growth stage 13-19, height 2-13 cm, water volume 140 l/ha): 93%
- % Herbicidal activity (SETVI): 93%
- % Herbicidal activity (AMAPA; g ai/ha A-1 12.5, B-5 1066, C-10 840): 22%
- % Herbicidal activity (AMAPA; g ai/ha A-1 25, B-5 1066, C-10 840): 22%
- % Herbicidal activity (ECHCG; 13 DAT, g ai/ha A-1 12.5, B-5 1066, C-10 840, growth stage 21-26, height 15-30 cm, water volume 187 l/ha): 90%
- % Herbicidal activity (ECHCG; 13 DAT, g ai/ha A-1 25, B-5 1066, C-10 840, growth stage 21-26, height 15-30 cm, water volume 187 l/ha): 90%
- % Herbicidal activity (ECHCG; 13 DAT, g ai/ha A-1 50, B-5 1066, C-10 840, growth stage 21-26, height 15-30 cm, water volume 187 l/ha): 90%

SMILES: CP(=O)(O)CCC(N)C(=O)O (centres unmarked) [C-11, glufosinate-ammonium]
- % Herbicidal activity (DIGSA; 21 DAT, g ai/ha A-1 12.5, B-5 1066, C-11 655, height 2-8 cm, water volume 140 l/ha): 49%
- % Herbicidal activity (DIGSA; 21 DAT, g ai/ha A-1 25, B-5 1066, C-11 655, height 2-8 cm, water volume 140 l/ha): 49%
- % Herbicidal activity (DIGSA; 21 DAT, g ai/ha A-1 50, B-5 1066, C-11 655, height 2-8 cm, water volume 140 l/ha): 49%
- % Herbicidal activity (DIGSA; Example 6, 7 DAT, g ai/ha A-1 12.5, B-5 1066, C-11 400, growth stage 21-22, height 15-20 cm): 25%
- % Herbicidal activity (DIGSA; Example 6, 21 DAT, g ai/ha A-1 12.5, B-5 1066, C-11 400, growth stage 21-22, height 15-20 cm): 20%
- % Herbicidal activity (DATST): 50%
- % Herbicidal activity (HORVW; Example 6, 28 DAT, g ai/ha A-1 12.5, B-5 1066, C-11 400): 30%
- % Herbicidal activity (HORVW; [1]): 10%
- % Herbicidal activity (CYPES; g ai/ha A-1 12.5, B-5 1066, C-11 655): 18%
- % Herbicidal activity (CYPES; g ai/ha A-1 50, B-5 1066, C-11 655): 18%
- % Herbicidal activity (ECHCG; Example 6, 7 DAT, g ai/ha A-1 12.5, B-5 1066, C-11 400, growth stage 23-30, height 15-20 cm): 30%
- % Herbicidal activity (ECHCG; Example 6, 28 DAT, g ai/ha A-1 12.5, B-5 1066, C-11 400, growth stage 23-30, height 15-20 cm): 70%
- % Herbicidal activity (ECHCG; [4]): 60%
- % Herbicidal activity (SETVE; 7 DAT): 55%
- % Herbicidal activity (SETVE; 21 DAT): 40%
- % Herbicidal activity (ZEAMX; Example 6, 7 DAT, g ai/ha A-1 12.5, B-5 1066, C-11 400, height 25-30 cm): 40%
- % Herbicidal activity (ZEAMX; Example 6, 28 DAT, g ai/ha A-1 12.5, B-5 1066, C-11 400, height 50-60 cm): 70%
- % Herbicidal activity (ZEAMX; [6]): 40%

SMILES: CP(=O)(O)CC[C@H](N)C(=O)O.N [C-12, glufosinate-P-ammonium]
- % Herbicidal activity (HORVW; Example 8, 21 DAT, g ai/ha A-1 12.5, B-5 1066, C-12 252): 20%
- % Herbicidal activity (HORVW; [2]): 60%
- % Herbicidal activity (ECHCG; Example 8, 7 DAT, g ai/ha A-1 12.5, B-5 1066, C-12 252, growth stage 23-30, height 15-20 cm): 50%
- % Herbicidal activity (ECHCG; Example 8, 21 DAT, g ai/ha A-1 12.5, B-5 1066, C-12 252, growth stage 23-30, height 15-20 cm): 70%
- % Herbicidal activity (ECHCG; Example 8, 28 DAT, g ai/ha A-1 12.5, B-5 1066, C-12 252, growth stage 23-30, height 15-20 cm): 60%
- % Herbicidal activity (ECHCG; [5]): 60%
- % Herbicidal activity (ZEAMX; Example 8, 28 DAT, g ai/ha A-1 12.5, B-5 1066, C-12 252, height 50-60 cm): 70%
- % Herbicidal activity (ZEAMX; [7]): 60%
